1 compound from patent US10532113B2, “Polymeric systems and uses thereof in theranostic applications” (Ramot at Tel-Aviv University Ltd., priority 2014, dated 2020) can be followed below.

Structures are written as SMILES. pIC50: −log10 of the molar value.

Experiment [1] concerns murine 4T1 mammary adenocarcinoma cells. The experiment can be described thus: Cell viability assay, HPMA conjugate study, 4T1 cells. The class given is cell-based. The settings on record: Mus musculus, 96 hours incubation, read-out: IC50, proliferation of 4T1 cells. The method, then:
(§1) 4T1 cells (3,000 cells/well), HUVEC (10,000 cells/well) and MDA-MB-231 cells (10,000 cells/well) were plated onto 24-well culture plates in RPMI supplemented with 2% FBS, EBM-2 supplemented with 5% FBS or in DMEM supplemented with 10% FBS respectively, and incubated for 24 hours (37° C.; 5% CO2). The medium was then replaced with RPMI 1640 supplemented with 10% FBS, EGM-2 or DMEM supplemented with 10% FBS. Cells were exposed to PTX and PTX bound-conjugates at serial dilutions, at equivalent dose of the free PTX. Number of viable cells was counted by a Z1 Coulter Counter® Cell and Particle Counter (Beckman Coulter®) following 96 hours of incubation.

Experiment [2] deals with HUVEC. Nature of the experiment: Cell viability assay, HPMA conjugate study, HUVEC proliferation. The settings on record: Homo sapiens, 96 hours incubation. It counts as cell-based. The procedure:
as §1

The test system of experiment [3] is human MDA-MB-231 mammary adenocarcinoma cells. Nature of the experiment: Cell viability assay, HPMA conjugate study, MDA-MB-231 cells. It counts as cell-based. The following applies: 72 hours incubation (FIG. 10C), read-out: IC50, proliferation of MDA-MB-231 cells. The procedure:
4T1 cells (3,000 cells/well), HUVEC (10,000 cells/well) and MDA-MB-231 cells (10,000 cells/well) were plated onto 24-well culture plates in RPMI supplemented with 2% FBS, EBM-2 supplemented with 5% FBS or in DMEM supplemented with 10% FBS respectively, and incubated for 24 hours (37° C.; 5% CO2). The medium was then replaced with RPMI 1640 supplemented with 10% FBS, EGM-2 or DMEM supplemented with 10% FBS. Cells were exposed to PTX and PTX bound-conjugates at serial dilutions, at equivalent dose of the free PTX. […]

For experiment [4] the test system is unchanged. The experiment can be described thus: Cell viability assay, PGA-PTX-Cy5 study, MDA-MB-231 cells. It counts as cell-based. The following applies: 72 hours incubation, read-out: IC50, proliferation of MDA-MB-231 cells. The procedure: (§2) 4T1 cells (8,000 cells/wells), WM239A cells (15,000 cells/well) and MDA-MB-231 cells (10,000/well) were plated onto 24-well culture in RPMI supplemented with 10% FBS, or in DMEM supplemented with 10% FBS respectively, and incubated for 24 hours (37° C.; 5% CO2). The medium was then replaced with RPMI 1640 supplemented with 10% FBS or DMEM supplemented with 10% FBS.
(§3) Cells were exposed to PTX and PTX-bound conjugates at serial dilutions, at equivalent dose of free PTX. Number of viable cells was counted by a Z1 Coulter Counter® Cell and Particle Counter (Beckman Coulter®) following 72 hours of incubation.

Experiment [5] deals with murine 4T1 adenocarcinoma cells. Nature of the experiment: Cell viability assay, PGA-PTX-Cy5 study, 4T1 cells. The following applies: Mus musculus, 72 hours incubation, read-out: IC50, proliferation of 4T1 cells. It counts as cell-based. The method, then: as §2, §3
Experiment [6] relates to human WM239A melanoma cells. Nature of the experiment: Cell viability assay, PGA-PTX-Cy5 study, WM239A cells. It counts as cell-based. The settings on record: 72 hours incubation, read-out: IC50, proliferation of WM239A cells. The procedure:
as §2, §3

Experiment [7] concerns HUVEC. The experiment can be described thus: HUVEC migration scratch assay. The class given is cell-based, human. The following applies: PTX-equivalent concentration 20 nM; 12 h. The procedure: The migration of HUVEC in the presence of PGA-PTX-Cy5 conjugate was evaluated using the scratch assay. The method is based on the observation that, upon creation of a new artificial gap, so called “scratch”, on a confluent cell monolayer, the cells on the edge of the newly created gap will move toward the opening to close the “scratch” until new cell-cell contacts are established again. […] At time zero (t=0) images were taken by phase-contrast microscope in a reference point. Following another 12 h of incubation, images of the reference point were taken again. The samples were analyzed quantitatively by ImageJ software.

For `CC(=O)O[C@H]1C(=O)[C@@]2(C)[C@H]([C@H](OC(=O)c3ccccc3)[C@]3(O)C[C@H](OC(=O)[C@H](O)[C@@H](NC(=O)c4ccccc4)c4ccccc4)C(C)=C1C3(C)C)[C@]1(OC(C)=O)CO[C@@H]1C[C@@H]2O` [PTX, Paclitaxel], the pIC50 is approximately 7.46 in experiment [1]; approximately 8.70 in experiment [2]; approximately 9.30 in experiment [3]; approximately 8.70 in experiment [4]; approximately 7.22 in experiment [5]; approximately 8.30 in experiment [6]. Further, the “HUVEC migration, gap closure” value in experiment [7] turned out to be 20%.
